In BindingDB's records for patent US20230312522 (Sage Therapeutics, 2023):

Biological target: Cholesterol 24-hydroxylase (Homo sapiens, UniProt Q9Y6A2)
Experiment: CYP46A1 Enzyme Assay
Experimental: Briefly, in a 384-well plate format, 10 uL per well of an enzyme-substrate mixture of CYP46A1 (5 uM final concentration) and Testosterone ([…]) were dispensed to wells containing test compound. For CYP46A1 titration, 5 uL per well of serially diluted CYP46A1 (concentrations including 10 uM, 5 uM, and 2.5 uM) and Testosterone ([…]) were dispensed. For Testosterone titration, 5 uL per well of serially diluted Testosterone (concentrations including 10 uM, 5 uM, and 2.5 uM) and CYP46A1 (concentration of 5 uM) were dispensed. The plates were centrifuged at 1000 rpm for 30 seconds, and then sealed and incubated at 37 C. for 30 minutes. The plate was removed from the incubator, and then 10 uL per well of NADPH-generating system were dispensed to initiate the reaction. The plates were incubated at 37 C. for 15 minutes, added with 80 uL per well of 100% methanol consisting 1 ng/ml diclofenac as internal standard, and then transferred for HPLC-MS.

Chain of Cholesterol 24-hydroxylase (Q9Y6A2 whole entry): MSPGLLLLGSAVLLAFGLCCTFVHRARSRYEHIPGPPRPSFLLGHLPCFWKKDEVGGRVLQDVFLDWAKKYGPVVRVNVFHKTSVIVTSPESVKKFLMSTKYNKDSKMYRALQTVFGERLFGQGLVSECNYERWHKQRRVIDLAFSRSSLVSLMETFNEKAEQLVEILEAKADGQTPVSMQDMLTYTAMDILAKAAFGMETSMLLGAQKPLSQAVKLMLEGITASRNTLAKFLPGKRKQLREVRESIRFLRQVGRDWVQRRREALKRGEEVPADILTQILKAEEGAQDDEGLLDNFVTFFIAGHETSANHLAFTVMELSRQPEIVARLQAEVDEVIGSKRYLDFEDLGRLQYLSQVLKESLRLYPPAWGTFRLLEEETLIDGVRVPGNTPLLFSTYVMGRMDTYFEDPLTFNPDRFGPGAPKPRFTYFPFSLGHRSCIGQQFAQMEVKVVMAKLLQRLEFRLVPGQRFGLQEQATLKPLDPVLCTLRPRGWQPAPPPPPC

SMILES	IC50 [nM]
O=C(c1cccnc1-c1ccncn1)N1CCC(F)(Cc2ccc(Cl)cn2)CC1 [US20230312522, Compound 18]	< 100
Cc1ccc(CC2(F)CCN(C(=O)c3cccnc3-c3ccncc3)CC2)nc1 [US20230312522, Compound 43]	< 100
Cc1ccc(CC2(F)CCN(C(=O)c3cccnc3-c3ccncc3)CC2)cn1 [US20230312522, Compound 57]	< 100
C[C@@H](c1ccc(C(F)(F)F)cc1)C1(F)CCN(C(=O)c2cccnc2-c2ccncn2)CC1 [US20230312522, Compound 34]	< 100
O=C(c1cccnc1-c1ccncc1)N1CCC(F)(Cc2ccc(CF)nc2)CC1 [US20230312522, Compound 54]	< 100
O=C(c1cccnc1-c1ccncn1)N1CCC(F)(c2ccccc2)CC1 [US20230312522, Compound 8]	> 1000
O=C(c1cccnc1-c1ccncn1)N1CCC(F)(Cc2ccc(F)cc2F)CC1 [US20230312522, Compound 19]	< 100
O=C(c1cccnc1-c1ccncn1)N1CCC(F)(Cc2ccc(CF)nc2)CC1 [US20230312522, Compound 51]	< 100
O=C(c1cccnc1-c1ccncc1)N1CCC(F)(Cc2ccc(C(F)F)nc2)CC1 [US20230312522, Compound 55]	< 100
O=C(c1cccnc1-c1ccncn1)N1CCC(F)(Cc2cc(F)cc(F)c2)CC1 [US20230312522, Compound 20]	< 100
O=C(c1cccnc1-c1ccncn1)N1CCC(F)(Cc2ccc(C(F)(F)F)cn2)CC1 [US20230312522, Compound 22]	< 100
O=C(c1cccnc1-c1ccncn1)N1CCC(F)([C@H](O)c2ccc(C(F)(F)F)cc2)CC1 [US20230312522, Compound 13]	< 100
O=C(c1cccnc1-c1ccncc1)N1CCC(F)(Cc2ccc(C(F)(F)F)nc2)CC1 [US20230312522, Compound 35]	< 100
O=C(c1cccnc1-c1ccncn1)N1CCC(F)(Cc2cc(C(F)(F)F)c(Cl)cn2)CC1 [US20230312522, Compound 39]	< 100
O=C(c1cccnc1-c1ccncn1)N1CCC(F)(Cc2ccc(C(F)(F)F)cc2F)CC1 [US20230312522, Compound 28]	< 100
C[C@@H](c1cc(F)cc(F)c1)C1(F)CCN(C(=O)c2cccnc2-c2ccncn2)CC1 [US20230312522, Compound 32]	< 100
O=C(c1cccnc1-c1ccncc1)N1CCC(F)(Cc2cnccn2)CC1 [US20230312522, Compound 45]	> 1000
O=C(c1cccnc1-c1ccncn1)N1CCC(F)(Cc2ccc(C(F)(F)F)nc2)CC1 [US20230312522, Compound 23]	< 100
O=C(c1cccnc1-c1ccncn1)N1CCC(F)(Cc2ncc(C(F)(F)F)cn2)CC1 [US20230312522, Compound 56]	> 1000
O=C(c1cccnc1-c1ccncn1)N1CCC(F)(Cc2ccc(Cl)nc2)CC1 [US20230312522, Compound 46]	< 100
O=C(c1cccnc1-c1ccncc1)N1CCC(F)(Cc2ccc(Cl)nc2)CC1 [US20230312522, Compound 47]	< 100
O=C(c1cccnc1-c1ccncn1)N1CCC(F)(Cc2c(F)cc(F)cc2F)CC1 [US20230312522, Compound 26]	< 100
O=C(c1cccnc1-c1ccncc1)N1CCC(F)(Cc2ccc(Cl)cn2)CC1 [US20230312522, Compound 38]	< 100
O=C(c1cccnc1-c1ccncn1)N1CCC(F)([C@@H](O)c2ccc(C(F)(F)F)cc2)CC1 [US20230312522, Compound 14]	< 100
C[C@H](c1ccc(C(F)(F)F)cc1)C1(F)CCN(C(=O)c2cccnc2-c2ccncn2)CC1 [US20230312522, Compound 33]	< 100
Cc1cnc(CC2(F)CCN(C(=O)c3cccnc3-c3ccncc3)CC2)cn1 [US20230312522, Compound 52]	< 100
O=C(c1cccnc1-c1ccncn1)N1CCC(F)(Cc2cccc(C(F)(F)F)n2)CC1 [US20230312522, Compound 24]	< 100
C[C@H](c1cc(F)cc(F)c1)C1(F)CCN(C(=O)c2cccnc2-c2ccncn2)CC1 [US20230312522, Compound 31]	< 100
O=C(c1cccnc1-c1ccncn1)N1CCC(F)(Cc2ccc(Cl)cc2)CC1 [US20230312522, Compound 29]	< 100
